From BindingDB's records for doi:10.7270/Q28S4S3D (n/a, 1997)

Target: T1, E-selectin (Homo sapiens, UniProt P16581)
T1 sequence (P16581 whole entry): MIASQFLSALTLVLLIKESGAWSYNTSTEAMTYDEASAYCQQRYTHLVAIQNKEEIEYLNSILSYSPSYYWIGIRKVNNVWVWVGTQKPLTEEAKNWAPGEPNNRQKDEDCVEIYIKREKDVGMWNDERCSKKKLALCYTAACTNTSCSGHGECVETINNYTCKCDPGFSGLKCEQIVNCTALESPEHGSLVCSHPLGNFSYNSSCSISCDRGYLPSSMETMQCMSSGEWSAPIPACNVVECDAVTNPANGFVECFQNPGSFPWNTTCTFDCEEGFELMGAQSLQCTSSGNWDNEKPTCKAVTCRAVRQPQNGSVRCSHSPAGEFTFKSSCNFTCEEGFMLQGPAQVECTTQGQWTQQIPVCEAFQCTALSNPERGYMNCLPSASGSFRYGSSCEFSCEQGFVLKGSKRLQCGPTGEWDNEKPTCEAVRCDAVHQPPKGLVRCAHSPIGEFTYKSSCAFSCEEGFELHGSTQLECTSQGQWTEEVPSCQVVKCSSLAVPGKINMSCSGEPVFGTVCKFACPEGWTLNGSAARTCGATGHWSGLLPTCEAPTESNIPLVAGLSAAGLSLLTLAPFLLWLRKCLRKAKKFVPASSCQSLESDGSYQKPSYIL
Test: Tested in vitro to inhibit cell adhesion of HL-60 cells to recombinant human soluble Selectin E

## C=CC(=O)NCCCCCCO[C@@H]1O[C@@H](CO)[C@@H](O[C@@H]2O[C@@H](CO)[C@H](O)[C@H](O[C@]3(C(=O)O)C[C@@H](O)[C@@H](NC(C)=O)[C@H]([C@H](O)[C@H](O)CO)O3)[C@@H]2O)[C@H](O[C@@H]2O[C@@H](C)[C@@H](O)[C@H](O)[C@@H]2O)[C@@H]1NC(=O)c1ccc2ccccc2c1
  IC50: 90.2 µM

## CCO[C@@H]1O[C@@H](CO)[C@@H](O[C@@H]2O[C@@H](CO)[C@H](O)[C@H](O[C@]3(C(=O)O)C[C@@H](O)[C@@H](NC(C)=O)[C@H]([C@H](O)[C@H](O)CO)O3)[C@@H]2O)[C@H](O[C@@H]2O[C@@H](C)[C@@H](O)[C@H](O)[C@@H]2O)[C@@H]1NC(C)=O
  IC50: 1760 µM
